Assay results: the supplement of paper PMC10307832

Experiments:
Experiment in all cases: relative viability (nuclei count vs DMSO), 5 days (fraction); higher = more cells survive
[1] = compound: CC1(C)CCC(CN2CCN(c3ccc(C(=O)NS(=O)(=O)c4ccc(NCC5CCOCC5)c([N+](=O)[O-])c4)c(Oc4cnc5[nH]ccc5c4)c3)CC2)=C(c2ccc(Cl)cc2)C1 [Venetoclax] + COc1cccc2cc(-c3nc([C@H]4CC[C@H](C(=O)O)CC4)n4ncnc(N)c34)[nH]c12 [OSI-027] (partner 0.5 µM)
In short: (§1)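 Lung cancer cell lines in 1536-well plates got either a single drug or a fixed anchor-drug dose together with five library-drug doses (not always all listed) in √10 steps, by pin tool, on the day after seeding. Nuclei were counted after 5 days, and relative viability is the treated-to-vehicle ratio of nuclei counts. Values are medians of duplicate plates.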

[2] = compound: CC1(C)CCC(CN2CCN(c3ccc(C(=O)NS(=O)(=O)c4ccc(NCC5CCOCC5)c([N+](=O)[O-])c4)c(Oc4cnc5[nH]ccc5c4)c3)CC2)=C(c2ccc(Cl)cc2)C1 [Venetoclax] + CS(=O)(=O)N1CCN(Cc2cc3nc(-c4cccc5[nH]ncc45)nc(N4CCOCC4)c3s2)CC1 [Pictilisib] (partner 1 µM)
In short: as §1

[3] = compound: CC1(C)CCC(CN2CCN(c3ccc(C(=O)NS(=O)(=O)c4ccc(NCC5CCOCC5)c([N+](=O)[O-])c4)c(Oc4cnc5[nH]ccc5c4)c3)CC2)=C(c2ccc(Cl)cc2)C1 [Venetoclax] + C[C@]1(O)C[C@@H](c2nc(-c3ccc4ccc(-c5ccccc5)nc4c3)c3c(N)nccn32)C1 [Linsitinib] (partner 1 µM)
In short: as §1

[4] = compound: CC1(C)CCC(CN2CCN(c3ccc(C(=O)NS(=O)(=O)c4ccc(NCC5CCOCC5)c([N+](=O)[O-])c4)c(Oc4cnc5[nH]ccc5c4)c3)CC2)=C(c2ccc(Cl)cc2)C1 [Venetoclax] + Cc1cc(Nc2cc(N3CCN(C)CC3)nc(Sc3ccc(NC(=O)C4CC4)cc3)n2)n[nH]1 [Tozasertib] (partner 0.1 µM)
In short: as §1

Cell Line | relative viability ([1]; first compound 0.01 µM) | relative viability ([1]; first compound 0.03162 µM) | relative viability ([1]; first compound 0.1 µM) | relative viability ([1]; first compound 0.3162 µM) | relative viability ([1]; first compound 1 µM) | relative viability ([2]; first compound 0.01 µM) | relative viability ([2]; first compound 0.03162 µM) | relative viability ([2]; first compound 0.1 µM) | relative viability ([2]; first compound 0.3162 µM) | relative viability ([2]; first compound 1 µM) | relative viability ([3]; first compound 0.01 µM) | relative viability ([3]; first compound 0.03162 µM) | relative viability ([3]; first compound 0.1 µM) | relative viability ([3]; first compound 0.3162 µM) | relative viability ([3]; first compound 1 µM) | relative viability ([4]; first compound 0.01 µM) | relative viability ([4]; first compound 0.03162 µM) | relative viability ([4]; first compound 0.1 µM) | relative viability ([4]; first compound 0.3162 µM) | relative viability ([4]; first compound 1 µM)
201T | 0.728 | 0.724 | 0.687 | 0.774 | 0.628 | 0.635 | 0.653 | 0.659 | 0.73 | 0.683 | 0.986 | 1.01 | 1.03 | 1.03 | 1.01 | 0.826 | 0.957 | 0.945 | 0.91 | 0.941
A549 | – | – | – | – | – | 0.48 | 0.542 | 0.564 | 0.493 | 0.482 | 0.586 | 0.597 | 0.524 | 0.568 | 0.558 | – | – | – | – | –
A-427 | 0.449 | 0.572 | 0.434 | 0.487 | 0.46 | 0.651 | 0.809 | 0.588 | 0.834 | 0.705 | 1.06 | 1.18 | 1.1 | 1.16 | 1.19 | 0.203 | 0.24 | 0.212 | 0.201 | 0.186
ABC-1 | 0.569 | 0.536 | 0.444 | 0.488 | 0.442 | 0.786 | 0.778 | 0.759 | 0.71 | 0.699 | 0.7 | 0.878 | 0.697 | 0.81 | 0.813 | 0.16 | 0.17 | 0.178 | 0.156 | 0.219
BEN | 0.291 | 0.295 | 0.289 | 0.281 | 0.281 | 0.738 | 0.637 | 0.518 | 0.557 | 0.546 | 0.91 | 0.919 | 0.769 | 0.842 | 0.997 | 0.426 | 0.476 | 0.373 | 0.476 | 0.38
CAL-12T | 0.641 | 0.693 | 0.639 | 0.549 | 0.413 | 0.36 | 0.609 | 0.489 | 0.419 | 0.396 | 0.728 | 0.931 | 0.685 | 0.776 | 0.691 | 0.302 | 0.346 | 0.28 | 0.222 | 0.19
COR-L23 | 0.661 | 0.839 | 0.713 | 0.687 | 0.696 | 0.676 | 0.82 | 0.732 | 0.825 | 0.676 | 0.864 | 0.953 | 0.879 | 0.897 | 0.815 | 0.206 | 0.217 | 0.231 | 0.16 | 0.182
COR-L 105 | 0.71 | 0.737 | 0.552 | 0.707 | 0.73 | 0.409 | 0.526 | 0.367 | 0.406 | 0.468 | 0.934 | 0.943 | 0.834 | 0.81 | 0.871 | 0.274 | 0.397 | 0.321 | 0.32 | 0.335
Calu-6 | – | – | – | – | – | 0.801 | 0.89 | 0.879 | 0.857 | 0.882 | 0.897 | 0.943 | 1.01 | 0.901 | 0.896 | – | – | – | – | –
ChaGo-K-1 | 0.716 | 0.634 | 0.516 | 0.552 | 0.479 | 0.91 | 0.998 | – | 0.825 | 0.727 | – | – | – | – | – | 0.236 | 0.218 | 0.224 | 0.208 | 0.227
EBC-1 | – | – | – | – | – | 0.436 | 0.59 | 0.348 | 0.339 | 0.406 | 0.902 | 0.963 | 0.912 | 0.837 | 0.786 | – | – | – | – | –
EKVX | 0.668 | 0.731 | 0.646 | 0.76 | 0.63 | 0.451 | 0.432 | 0.423 | 0.469 | 0.395 | 0.909 | 0.976 | 0.88 | 1.03 | 0.844 | 0.403 | 0.392 | 0.435 | 0.324 | 0.309
EMC-BAC-2 | 0.405 | 0.441 | 0.371 | 0.403 | 0.353 | 0.459 | 0.56 | 0.452 | 0.544 | 0.535 | 0.789 | 0.834 | 0.816 | 0.814 | 0.787 | 0.3 | 0.285 | 0.28 | 0.273 | 0.259
EPLC-272H | 0.284 | 0.294 | 0.281 | 0.292 | 0.3 | – | 0.3 | 0.327 | 0.403 | 0.33 | – | 1.31 | 1.06 | 1.45 | 1.07 | 0.339 | 0.391 | 0.311 | 0.452 | 0.336
H3255 | 0.577 | 0.541 | 0.493 | 0.506 | 0.668 | 0.47 | 0.527 | 0.457 | 0.486 | 0.482 | 1 | 0.953 | 0.809 | 0.873 | 0.915 | 0.564 | 0.525 | 0.615 | 0.591 | 0.745
HARA | 0.427 | 0.571 | 0.452 | 0.427 | 0.362 | 0.55 | 0.386 | 0.396 | 0.451 | 0.324 | 0.833 | 0.93 | 0.911 | 0.927 | 0.928 | 0.0626 | 0.109 | 0.0841 | 0.116 | 0.106
HCC-15 | 0.653 | 0.67 | 0.721 | 0.658 | 0.549 | 0.652 | 0.804 | 0.629 | 0.706 | 0.701 | 0.763 | 0.826 | 0.742 | 0.794 | 0.771 | 0.45 | 0.47 | 0.371 | 0.324 | 0.273
